# Experimental data from patent US20240270821A1, “GIP/GLP1/GCG TRI-RECEPTOR AGONISTS AND USES THEREOF” (priority 2023, published 2024).
# Like-named read-outs stand apart in the source and are kept apart here. Starred links: 1 amine or outer side, 2 acyl side, 3 side chain; linkers in the order of their positions; H or OH if unused. Non-standard residues stand in square brackets, D forms with d. Groups on a side chain read outwards from the residue. *: point of attachment. C18 diacid = O=C(O)CCCCCCCCCCCCCCCCC(=O)*; γGlu = O=C(O)[C@H](CCC(=O)[*:2])N[*:1]; αMe4Pal = C[C@](N)(Cc1ccncc1)C(=O)O; αMeY = C[C@](N)(Cc1ccc(O)cc1)C(=O)O; 4Pal = N[C@@H](Cc1ccncc1)C(=O)O; αMeL = CC(C)C[C@](C)(N)C(=O)O; αMeS = C[C@](N)(CO)C(=O)O; Orn = NCCC[C@H](N)C(=O)O; Aib = CC(C)(N)C(=O)O
# How the values were obtained:
# Type in all cases: cell-based
# human GcgR = human GcgR (Homo sapiens, UniProt P47871); test: Functional cAMP activity in the presence of 1% HSA
# hGLP-1R [1] = molecular target: T1, hGLP-1R (Homo sapiens, UniProt P43220); test: Functional cAMP activity in the presence of 1% HSA
# hGLP-1R [2] = molecular target: T1, hGLP-1R; test: Functional cAMP activation in the presence of 0.1% casein (no HSA);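 on Relative cAMP EC50, hGIPR: intracellular cAMP rise after 30 min at 37 °C read by HTRF against a standard curve, scaled between buffer alone (0%) and top control ligand concentration (100%), four-parameter fit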;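 on Relative cAMP EC50, hGLP-1R: intracellular cAMP rise after 30 min at 37 °C read by HTRF, normalized between buffer only (0%) and maximal control ligand (100%), four-parameter variable-slope fit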
# hGIPR [3] = molecular target: T2, hGIPR (Homo sapiens, UniProt P48546); test: as above;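 further: intracellular cAMP rise after 30 min at 37 °C read by HTRF against a standard curve, scaled between buffer alone (0%) and top control ligand concentration (100%), four-parameter fit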
# T2 sequence (P48546 22-466): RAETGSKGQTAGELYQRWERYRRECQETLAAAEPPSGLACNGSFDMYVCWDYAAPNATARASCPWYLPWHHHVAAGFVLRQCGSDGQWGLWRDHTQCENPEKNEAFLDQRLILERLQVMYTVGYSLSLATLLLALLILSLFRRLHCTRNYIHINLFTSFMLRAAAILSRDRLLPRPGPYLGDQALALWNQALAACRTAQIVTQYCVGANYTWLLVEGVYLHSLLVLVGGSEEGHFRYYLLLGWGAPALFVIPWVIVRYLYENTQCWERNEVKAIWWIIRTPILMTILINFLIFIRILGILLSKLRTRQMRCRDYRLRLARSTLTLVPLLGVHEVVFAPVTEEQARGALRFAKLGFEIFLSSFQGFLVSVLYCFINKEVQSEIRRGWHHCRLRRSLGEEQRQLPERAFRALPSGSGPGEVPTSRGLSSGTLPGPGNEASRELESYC
# hGIPR [4] = molecular target: T2, hGIPR; test: Functional cAMP activity in the presence of 1% HSA
# hGcgR = hGcgR (Homo sapiens, UniProt P47871); test: Functional cAMP activation in the presence of 0.1% casein (no HSA);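 further: intracellular cAMP rise after 30 min at 37 °C, read by HTRF against a cAMP standard curve, scaled from buffer only (0%) to maximal control ligand response (100%)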
# [5] = read-out: cAMP Rel EC50, hGLP-1R
# [6] = in the presence of 0.1% casein (no HSA), geometric mean, read-out: Relative cAMP EC50, hGLP-1R
# [7] = in the presence of 0.1% casein (no HSA), geometric mean, read-out: Relative cAMP EC50, hGIPR
# [8] = in the presence of 0.1% casein (no HSA), geometric mean, read-out: Relative cAMP EC50, hGcgR
# [9] = HEK-293 clonal cell line, in the presence of 1% HSA, geometric mean of relative EC50, read-out: cAMP Rel EC50, hGcgR
# [10] = HEK-293 clonal cell line, in the presence of 1% HSA, geometric mean of relative EC50, read-out: cAMP Rel EC50, hGLP-1R
# [11] = HEK-293 clonal cell line, in the presence of 1% HSA, geometric mean of relative EC50, read-out: cAMP Rel EC50, hGIPR
# Chain of hGcgR (P47871 26-477): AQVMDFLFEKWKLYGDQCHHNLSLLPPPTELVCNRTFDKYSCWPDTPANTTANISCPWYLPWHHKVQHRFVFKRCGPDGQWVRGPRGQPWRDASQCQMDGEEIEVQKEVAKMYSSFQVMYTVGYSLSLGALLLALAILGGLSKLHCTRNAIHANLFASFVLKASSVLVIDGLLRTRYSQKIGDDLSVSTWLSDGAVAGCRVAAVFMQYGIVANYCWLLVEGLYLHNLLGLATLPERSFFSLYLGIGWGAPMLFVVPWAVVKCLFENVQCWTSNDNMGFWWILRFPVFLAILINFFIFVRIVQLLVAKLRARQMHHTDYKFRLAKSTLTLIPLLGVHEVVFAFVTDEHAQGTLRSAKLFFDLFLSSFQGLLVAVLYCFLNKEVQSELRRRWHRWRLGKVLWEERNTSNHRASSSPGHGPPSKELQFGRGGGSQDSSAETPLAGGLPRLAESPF
# Chain of human GcgR (P47871 26-477): as above
# T1 sequence (P43220 24-463): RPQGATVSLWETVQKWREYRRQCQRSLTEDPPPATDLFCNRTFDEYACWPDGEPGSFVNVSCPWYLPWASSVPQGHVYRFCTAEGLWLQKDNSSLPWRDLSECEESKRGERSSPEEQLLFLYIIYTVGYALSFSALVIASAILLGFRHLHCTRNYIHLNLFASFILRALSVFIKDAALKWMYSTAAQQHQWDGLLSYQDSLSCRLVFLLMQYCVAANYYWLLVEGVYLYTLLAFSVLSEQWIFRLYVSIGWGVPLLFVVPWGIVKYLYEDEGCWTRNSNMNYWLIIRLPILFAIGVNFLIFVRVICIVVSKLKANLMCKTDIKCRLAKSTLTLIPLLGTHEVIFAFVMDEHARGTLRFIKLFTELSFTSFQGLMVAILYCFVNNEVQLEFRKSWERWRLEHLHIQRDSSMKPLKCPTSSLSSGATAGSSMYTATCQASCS
Substance,"EC50 (human GcgR; read-out: cAMP Rel EC50, hGcgR)",EC50 (hGLP-1R [1]; [5]),EC50 (hGLP-1R [2]; [6]),EC50 (hGIPR [3]; [7]),"EC50 (hGIPR [4]; read-out: cAMP Rel EC50, hGIPR)",EC50 (hGcgR; [8]),EC50 (human GcgR; [9]),EC50 (hGLP-1R [1]; [10]),EC50 (hGIPR [4]; [11]),EC50 (human GcgR),EC50 (hGLP-1R [1]),EC50 (hGLP-1R [2]),EC50 (hGIPR [3]),EC50 (hGIPR [4]),EC50 (hGcgR)
H-Y[Aib]QGTFTSD[4Pal]S[Orn][αMeL]LD[Orn]K([γGlu-γGlu-C18 diacid])AQ[αMe4Pal]AFIEYLIE[Aib]GPSSGAPPPSGS-NH2 [Example 939],423 nM,287 nM,2.75 nM,0.143 nM,14.1 nM,2.41 nM,–,–,–,–,–,–,–,–,–
H-Y[Aib]QGTFTSD[4Pal]S[Orn][αMeL]LD[Orn]K([γGlu-γGlu-C18 diacid])AQ[αMe4Pal]AFIEYLLAGGPSSGAPPPSGSEE-NH2 [Example 1068],295 nM,1330 nM,11.6 nM,0.211 nM,20.2 nM,4.8 nM,–,–,–,–,–,–,–,–,–
H-Y[Aib]QGTFTSD[4Pal]S[Orn][αMeL]LD[Orn]K([γGlu-γGlu-C18 diacid])AQ[αMe4Pal]AFIE[αMe4Pal]LIE[Aib]GPSSGEPPPSGS-NH2 [Example 991],405 nM,315 nM,3.91 nM,0.119 nM,14.8 nM,3.03 nM,–,–,–,–,–,–,–,–,–
H-Y[Aib]QGTFTSD[4Pal]S[Orn][αMeL]LD[Orn]K([γGlu-γGlu-C18 diacid])AQ[αMe4Pal]AFIE[αMeY]LIEGGPSSGAPPPSGS-NH2 [Example 1013],285 nM,137 nM,0.449 nM,0.208 nM,22.6 nM,2 nM,–,–,–,–,–,–,–,–,–
H-Y[Aib]QGTFTSD[4Pal]S[Orn][αMeL]LD[Orn]K([γGlu-γGlu-C18 diacid])AQ[αMe4Pal]EFIEYLLAGGPSSGAPPPSGSEE-NH2 [Example 1003],371 nM,1950 nM,42.4 nM,0.272 nM,15.9 nM,5.07 nM,–,–,–,–,–,–,–,–,–
H-Y[Aib]QGTFTSD[4Pal]S[Orn][αMeL]LD[Orn]K([γGlu-γGlu-C18 diacid])AQ[αMe4Pal]EFIE[αMeY]LIEGGPSSGAPPPSGSEE-NH2 [Example 973],2270 nM,1140 nM,6.1 nM,0.503 nM,60.1 nM,17.6 nM,–,–,–,–,–,–,–,–,–
H-Y[Aib]QGTFTSD[4Pal]S[Orn][αMeL]LD[Orn]K([γGlu-γGlu-C18 diacid])AQ[αMe4Pal]EFIE[αMeY]LLAGGPSSGAPPPSGSEE-NH2 [Example 996],–,–,98.1 nM,0.2 nM,–,14.9 nM,1160 nM,4810 nM,11.2 nM,–,–,–,–,–,–
H-Y[Aib]QGTFTSD[4Pal]S[Orn][αMeL]LD[Orn]K([γGlu-γGlu-C18 diacid])AQ[αMe4Pal]EFIE[αMeY]LLEGGPSSGAPPPSGSEE-NH2 [Example 976],848 nM,2860 nM,21.8 nM,0.441 nM,82.7 nM,8.75 nM,–,–,–,–,–,–,–,–,–
H-Y[Aib]QGTFTSD[4Pal]S[Orn][αMeL]LD[Orn]K([γGlu-γGlu-C18 diacid])AQ[αMe4Pal]QFIEYLIAGGPSSGAPPPSGSEE-NH2 [Example 1000],501 nM,279 nM,3.55 nM,0.176 nM,15.5 nM,4.62 nM,–,–,–,–,–,–,–,–,–
H-Y[Aib]QGTFTSD[4Pal]S[Orn][αMeL]LD[Orn]K([γGlu-γGlu-C18 diacid])AQ[αMe4Pal]QFIEYLLAGGPSSGAPPPSGSEE-NH2 [Example 1002],197 nM,1290 nM,9.09 nM,0.119 nM,11.6 nM,1.89 nM,–,–,–,–,–,–,–,–,–
H-Y[Aib]QGTFTSD[4Pal]S[Orn][αMeL]LD[Orn]K([γGlu-γGlu-C18 diacid])AQ[αMe4Pal]QFIE[αMeY]LLEGGPSSGAPPPSGSEE-NH2 [Example 975],–,–,–,–,–,–,–,–,–,374 nM,1810 nM,10.2 nM,0.344 nM,30.1 nM,2.61 nM
H-Y[Aib]QGTFTSD[4Pal]S[Orn][αMeL]LD[Orn]K([γGlu-γGlu-C18 diacid])AQ[αMe4Pal][Orn]FIEYLLAGGPSSGAPPPSGSEE-NH2 [Example 1004],237 nM,973 nM,9.34 nM,0.519 nM,35.4 nM,2.67 nM,–,–,–,–,–,–,–,–,–
H-Y[Aib]QGTFTSD[4Pal]S[Orn][αMeL]LD[Orn]K([γGlu-γGlu-C18 diacid])AQ[αMe4Pal][Orn]FIE[αMeY]LIEGGPSSGAPPPSGSEE-NH2 [Example 974],870 nM,283 nM,1.57 nM,0.607 nM,80.9 nM,3.7 nM,–,–,–,–,–,–,–,–,–
H-Y[Aib]QGTFTSD[4Pal]S[Orn][αMeL]LD[Orn]K([γGlu-γGlu-C18 diacid])AQ[αMe4Pal][Orn]FIE[αMeY]LLAGGPSSGAPPPSGSEE-NH2 [Example 997],–,–,20.7 nM,0.373 nM,–,5.01 nM,527 nM,1880 nM,27.8 nM,–,–,–,–,–,–
H-Y[Aib]QGTFTSD[4Pal]S[Orn][αMeL]LD[Orn]K([γGlu-γGlu-γGlu-C18 diacid])AQ[αMe4Pal]AFIEYLIE[Aib]GPSSGAPPPSGSE-NH2 [Example 943],960 nM,382 nM,3.58 nM,0.233 nM,23.1 nM,6.58 nM,–,–,–,–,–,–,–,–,–
H-Y[Aib]QGTFTSD[4Pal][αMeS]I[αMeL]LD[Orn]K([dE-γGlu-C18 diacid])AQ[αMe4Pal]QFIQ[αMeY]LIE[Aib]GPSSGAPPPSGGGE-NH2 [Example 1136],121 nM,39.2 nM,0.453 nM,0.0131 nM,0.949 nM,1.26 nM,–,–,–,–,–,–,–,–,–
H-Y[Aib]QGTFTSD[4Pal][αMeS]Q[αMeL]LD[Orn]K([dE-γGlu-C18 diacid])AQ[αMe4Pal]QFIE[αMeY]LIA[Aib]GPSSGAPPPSGGGE-NH2 [Example 1185],206 nM,66.1 nM,0.762 nM,0.0266 nM,2.31 nM,1.64 nM,–,–,–,–,–,–,–,–,–
H-Y[Aib]QGTFTSD[4Pal][αMeS]Q[αMeL]LD[Orn]K([dE-γGlu-C18 diacid])AQ[αMe4Pal]QFIE[αMeY]LIA[Aib]GPSSGEPPPSGGGE-NH2 [Example 1182],172 nM,80.4 nM,0.797 nM,0.0316 nM,2.73 nM,1.24 nM,–,–,–,–,–,–,–,–,–
H-Y[Aib]QGTFTSD[4Pal][αMeS]Q[αMeL]LD[Orn]K([dE-γGlu-C18 diacid])AQ[αMe4Pal]QFIE[αMeY]LIE[Aib]GPSSGAPPPSGGGE-NH2 [Example 1187],370 nM,154 nM,1.06 nM,0.0648 nM,7.11 nM,1.81 nM,–,–,–,–,–,–,–,–,–
H-Y[Aib]QGTFTSD[4Pal][αMeS]Q[αMeL]LD[Orn]K([dE-γGlu-C18 diacid])AQ[αMe4Pal]QFIQ[αMeY]LIAGGPSSGEPPPSGGGE-NH2 [Example 1133],216 nM,47.8 nM,0.768 nM,0.0719 nM,4.24 nM,2.95 nM,–,–,–,–,–,–,–,–,–
